Our source for the mass density values is the NIST ThermoML archive (doi:10.1016/j.jct.2012.12.025).

± gives the expanded uncertainty stated by the source.

A short description of one data set: cn = amount concentration of the nth substance listed, in mol/dm3. The settings on record: 298.15 K; 101 kPa; Liquid; Pycnometric method; c1 = 1.
As a reminder, the mass density is the mass of a sample divided by its volume. Turning to `O=S(=O)([N-]S(=O)(=O)C(F)(F)F)C(F)(F)F.[Li+]` [lithium bis((trifluoromethyl)sulfonyl)amide] + CCOC(=O)OCC, the mass density was 1100 ± 100 kg/m3. As for `O=S(=O)([N-]S(=O)(=O)C(F)(F)F)C(F)(F)F.[Li+]` [lithium bis((trifluoromethyl)sulfonyl)amide] + COC(=O)OC, the mass density stood at 1160 ± 100 kg/m3. Same read-out and setting: then `O=S(=O)([N-]S(=O)(=O)C(F)(F)F)C(F)(F)F.[Li+]` [lithium bis((trifluoromethyl)sulfonyl)amide] + O=C1OCCO1, with 1420 ± 100 kg/m3; and `F[P-](F)(F)(F)(F)F.[Li+]` [lithium hexafluorophosphate] + CCOC(=O)OC, with 1090 ± 100 kg/m3. On to `F[P-](F)(F)(F)(F)F.[Li+]` [lithium hexafluorophosphate] + CCOC(=O)OCC, for which the mass density amounted to 1050 ± 100 kg/m3.

Consider `F[P-](F)(F)(F)(F)F.[Li+]` [lithium hexafluorophosphate] + COC(=O)OC, for which the mass density came out at 1140 ± 100 kg/m3.

`F[P-](F)(F)(F)(F)F.[Li+]` [lithium hexafluorophosphate] + O=C1OCCO1: the mass density was 1400 ± 100 kg/m3.

The same data set, now with this note: 298.15 K; 101 kPa; Liquid; Pycnometric method; c2 = 1.
Regarding `CCOC(=O)OC` [ethyl methyl carbonate] + O=S(=O)([N-]S(=O)(=O)C(F)(F)F)C(F)(F)F.[Li+], the mass density is given as 1130 ± 100 kg/m3.

Test in a further data set: not given
As to conditions: 298.15 K; 101.33 kPa; Liquid; Pycnometric method.
For the molecule `CCOC(=O)OCC` [diethyl carbonate], the mass density is reported as 970 ± 100 kg/m3. For `COC(=O)OC` [dimethyl carbonate], the mass density was 1070 ± 100 kg/m3. Still for that read-out and setting: the figure for `CCOC(=O)OC` [ethyl methyl carbonate] is 1010 ± 100 kg/m3; for `O=C1OCCO1` [ethylene carbonate] it is 1350 ± 100 kg/m3.

Another data set is described as follows: wn = mass fraction of the nth substance listed. The settings on record: 298.15 K; 101 kPa; Liquid; Pycnometric method; w1 = 0.5.
For the molecule `O=C1OCCO1` [ethylene carbonate] + CCOC(=O)OCC, the mass density is 1090 ± 100 kg/m3. Same read-out and setting: the figure for `O=C1OCCO1` [ethylene carbonate] + COC(=O)OC is 1230 ± 100 kg/m3.

The data set is the same for the next values; noted with them: 298.15 K; 101 kPa; Liquid; Pycnometric method; w2 = 0.5.
As to `CCOC(=O)OC` [ethyl methyl carbonate] + O=C1OCCO1, the mass density is 1190 ± 100 kg/m3.
